Measured values published in patent US10206878B2, “Lyophilized formulation of TAT-NR2B9C with acetylation scavenger” (NoNO Inc., priority 2014, dated 2019).
No end group written: not given here.

Assay: Solubility study of TAT-NR2B9C, visual analysis
Format: physicochemical
Conditions: pH 6.5, 35, 50, 75 and 100 mg/mL, t=0 and t=24 hours
Protocol: Due to the relatively low Tg temperatures that would likely require a longer lyophilization cycle to dry, we looked at a wider range of standard bulking agents and looked to reduce the fill volume into the container closure system so that there would be a reduced volume of liquid to lyophilize. […] Samples were visually analyzed at 35, 50, 75 and 100 mg/mL. All solutions were clear at t=0 and t=24 hours. […] A wide range of quantities may be required in a vial, but 270 mg would provide a […] dose for a 100 kg patient. Assuming the target reconstitution concentration for patient administration is still 20 mg/mL (but can be from 1 mg/ml to 100 mg/ml), then a 20-mL lyophilization vial containing 270 mg of TAT-NR2B9C can be used with a reconstitution volume of 13.5 mL. Therefore, optimal volumes of liquid for lyophilization of TAT-NR2B9C in the vial would be between 2.5 mL and 10 mL.

Sequence: YGRKKRRQRRRKLSSIESDV [TAT-NR2B9C]
- solubility, visual (in Histidine+Trehalose): clear
- solubility, visual (in Histidine): clear
